Measured values taken from patent US20120039847A1, “Hepatitis C Virus Inhibitors” (priority 2010, published 2012).

These compounds were tested on HCV genotype 1b replicon (2209-23 cells, Huh7) (assay: HCV replicon assay (Renilla luciferase reporter)). Conditions: Hepatitis C virus, Huh-7, 72 h, Huh7-derived cell line 2209-23, three days incubation, luciferase readout.
Format: cell-based

Compound	IC50 [pM]
COC(=O)N[C@H](C(=O)N1CCC[C@H]1C(=O)Nc1nccc2cc(-c3ccc(-c4cnc([C@@H]5CCCN5C(=O)[C@@H](NC(=O)OC)C(C)C)[nH]4)cc3)ccc12)C(C)C [I-6, [(S)-1-((S)-2-{5-[4-(1-{[(S)-1-((S)-2-Methoxycarbonylamino-3-methyl-butyryl)-pyrrolidine-2-carbonyl]-amino}-isoquinolin-6-yl)-phenyl]-1H-imidazol-2-yl}-pyrrolidine-1-carbonyl)-2-methyl-propyl]-carbamic acid methyl ester]	13900
COC(=O)N[C@H](C(=O)N1CCC[C@H]1c1ncc(-c2ccc(-c3ccc4cc(NC(=O)[C@@H]5CCCN5C(=O)c5ccccc5)ccc4n3)cc2)[nH]1)C(C)C [I-15, ((S)-1-{(S)-2-[5-(4-{6-[((S)-1-Benzoyl-pyrrolidine-2-carbonyl)-amino]-quinolin-2-yl}-phenyl)-1H-imidazol-2-yl]-pyrrolidine-1-carbonyl}-2-methyl-propyl)-carbamic acid methyl ester]	1400
COC(=O)N[C@H](C(=O)N1CCC[C@H]1C(=O)NC1CCc2cc(-c3ccc(-c4cnc([C@@H]5CCCN5C(=O)[C@@H](NC(=O)OC)C(C)C)[nH]4)cc3)ccc2C1)C(C)C (stereo partly drawn) [I-10, ((S)-1-{(S)-2-[6-(4-{2-[(S)-1-((S)-2-Methoxycarbonylamino-3-methyl-butyryl)-pyrrolidin-2-yl]-3H-imidazol-4-yl}-phenyl)-1,2,3,4-tetrahydro-naphthalen-2-ylcarbamoyl]-pyrrolidine-1-carbonyl}-2-methyl-propyl)-carbamic acid methyl ester]	1200
COC(=O)N[C@H](C(=O)N1CCC[C@H]1C(=O)NC1CCc2cc(-c3ccc(-c4cnc([C@@H]5CCCN5C(=O)[C@@H](NC(=O)OC)C(C)C)[nH]4)cc3)ccc21)C(C)C (stereo partly drawn) [I-4, [(S)-1-((S)-2-{5-[4-(1-{[(S)-1-((S)-2-Methoxycarbonylamino-3-methyl-butyryl)-pyrrolidine-2-carbonyl]-amino}-indan-5-yl)-phenyl]-1H-imidazol-2-yl}-pyrrolidine-1-carbonyl)-2-methyl-propyl]-carbamic acid methyl ester]	310
COC(=O)N[C@H](C(=O)N1CCC[C@H]1c1ncc(-c2ccc(-c3ccc4cc(NC(=O)[C@@H]5CCCN5C(=O)C(C)C)ccc4n3)cc2)[nH]1)C(C)C [I-13, ((S)-1-{(S)-2-[5-(4-{6-[((S)-1-Isobutyryl-pyrrolidine-2-carbonyl)-amino]-quinolin-2-yl}-phenyl)-1H-imidazol-2-yl]-pyrrolidine-1-carbonyl}-2-methyl-propyl)-carbamic acid methyl ester]	1060
COC(=O)N[C@H](C(=O)N1CCC[C@H]1C(=O)Nc1cccc2cc(-c3ccc(-c4cnc([C@@H]5CCCN5C(=O)[C@@H](NC(=O)OC)C(C)C)[nH]4)cc3)ccc12)C(C)C [I-5, [(S)-1-((S)-2-{5-[4-(5-{[(S)-1-((S)-2-Methoxycarbonylamino-3-methyl-butyryl)-pyrrolidine-2-carbonyl]-amino}-naphthalen-2-yl)-phenyl]-1H-imidazol-2-yl}-pyrrolidine-1-carbonyl)-2-methyl-propyl]-carbamic acid methyl ester]	200
COC(=O)N[C@H](C(=O)N1CCC[C@H]1c1ncc(-c2ccc(-c3ccc4cc(NC(=O)[C@@H]5CCCN5C(C)=O)ccc4n3)cc2)[nH]1)C(C)C [I-11, ((S)-1-{(S)-2-[5-(4-{6-[((S)-1-Acetyl-pyrrolidine-2-carbonyl)-amino]-quinolin-2-yl}-phenyl)-1H-imidazol-2-yl]-pyrrolidine-1-carbonyl}-2-methyl-propyl)-carbamic acid methyl ester]	630
COC(=O)N[C@H](C(=O)N1CCC[C@H]1C(=O)Nc1ccc2nc(-c3ccc(-c4cnc([C@@H]5CCCN5C(=O)[C@@H](NC(=O)OC)C(C)C)[nH]4)cc3)ccc2c1)C(C)C [I-3, ((S)-1-{(S)-2-[2-(4-{2-[(S)-1-((S)-2-Methoxycarbonylamino-3-methyl-butyryl)-pyrrolidin-2-yl]-3H-imidazol-4-yl}-phenyl)-quinolin-6-ylcarbamoyl]-pyrrolidine-1-carbonyl}-2-methyl-propyl)-carbamic acid methyl ester]	413
COC(=O)N[C@H](C(=O)N1CCC[C@H]1c1ncc(-c2ccc(-c3ccc4cc(NC(=O)[C@@H]5CCCN5C(=O)CC(C)C)ccc4n3)cc2)[nH]1)C(C)C [I-14, [(S)-2-Methyl-1-((S)-2-{5-[4-(6-{[(S)-1-(3-methyl-butyryl)-pyrrolidine-2-carbonyl]-amino}-quinolin-2-yl)-phenyl]-1H-imidazol-2-yl}-pyrrolidine-1-carbonyl)-propyl]-carbamic acid methyl ester]	1700
COC(=O)N[C@H](C(=O)N1CCC[C@H]1C(=O)Nc1ccc2cc(-c3ccc(-c4cnc([C@@H]5CCCN5C(=O)[C@@H](NC(=O)OC)C(C)C)[nH]4)cc3)ccc2c1)C(C)C [I-1, ((S)-1-{(S)-2-[6-(4-{2-[(S)-1-((S)-2-Methoxycarbonylamino-3-methyl-butyryl)-pyrrolidin-2-yl]-3H-imidazol-4-yl}-phenyl)-naphthalen-2-ylcarbamoyl]-pyrrolidine-1-carbonyl}-2-methyl-propyl)-carbamic acid methyl ester]	41
COC(=O)N[C@H](C(=O)N1CCC[C@H]1C(=O)Nc1ccc2cc(-c3ccc(-c4cnc([C@@H]5CCCN5C(=O)[C@@H](NC(=O)OC)C(C)C)[nH]4)cc3)ccc2n1)C(C)C [I-7, ((S)-1-{(S)-2-[6-(4-{2-[(S)-1-((S)-2-Methoxycarbonylamino-3-methyl-butyryl)-pyrrolidin-2-yl]-3H-imidazol-4-yl}-phenyl)-quinolin-2-ylcarbamoyl]-pyrrolidine-1-carbonyl}-2-methyl-propyl)-carbamic acid methyl ester]	150
COC(=O)N[C@H](C(=O)N1CCC[C@H]1C(=O)N1CCc2cc(-c3ccc(-c4cnc([C@@H]5CCCN5C(=O)[C@@H](NC(=O)OC)C(C)C)[nH]4)cc3)ccc2C1)C(C)C [I-12, ((S)-1-{(S)-2-[5-(4-{2-[(S)-1-((S)-2-Methoxycarbonylamino-3-methyl-butyryl)-pyrrolidine-2-carbonyl]-1,2,3,4-tetrahydro-isoquinolin-6-yl}-phenyl)-1H-imidazol-2-yl]-pyrrolidine-1-carbonyl}-2-methyl-propyl)-carbamic acid methyl ester]	2060
COC(=O)N[C@H](C(=O)N1CCC[C@H]1C(=O)Nc1nc2cc(-c3ccc(-c4cnc([C@@H]5CCCN5C(=O)[C@@H](NC(=O)OC)C(C)C)[nH]4)cc3)ccc2[nH]1)C(C)C [I-8, [(S)-1-((S)-2-{5-[4-(2-{[(S)-1-((S)-2-Methoxycarbonylamino-3-methyl-butyryl)-pyrrolidine-2-carbonyl]-amino}-1H-benzoimidazol-5-yl)-phenyl]-1H-imidazol-2-yl}-pyrrolidine-1-carbonyl)-2-methyl-propyl]-carbamic acid methyl ester]	370
COC(=O)N[C@H](C(=O)N1CCC[C@H]1C(=O)NC1Cc2ccc(-c3ccc(-c4cnc([C@@H]5CCCN5C(=O)[C@@H](NC(=O)OC)C(C)C)[nH]4)cc3)cc2C1)C(C)C (stereo partly drawn) [I-9, ((S)-1-{(S)-2-[5-(4-{2-[(S)-1-((S)-2-Methoxycarbonylamino-3-methyl-butyryl)-pyrrolidin-2-yl]-3H-imidazol-4-yl}-phenyl)-indan-2-ylcarbamoyl]-pyrrolidine-1-carbonyl}-2-methyl-propyl)-carbamic acid methyl ester]	430
COC(=O)N[C@H](C(=O)N1CCC[C@H]1C(=O)NC1CCCc2cc(-c3ccc(-c4cnc([C@@H]5CCCN5C(=O)[C@@H](NC(=O)OC)C(C)C)[nH]4)cc3)ccc21)C(C)C (stereo partly drawn) [I-2, [(S)-1-((S)-2-{5-[4-(5-{[(S)-1-((S)-2-Methoxycarbonylamino-3-methyl-butyryl)-pyrrolidine-2-carbonyl]-amino}-5,6,7,8-tetrahydro-naphthalen-2-yl)-phenyl]-1H-imidazol-2-yl}-pyrrolidine-1-carbonyl)-2-methyl-propyl]-carbamic acid methyl ester]	4000
COC(=O)N[C@H](C(=O)N1CCC[C@H]1C(=O)NCc1ccc(-c2ccc(-c3cnc([C@@H]4CCCN4C(=O)[C@@H](NC(=O)OC)C(C)C)[nH]3)cc2)cc1)C(C)C [I-16, ((S)-1-{(S)-2-[(4′-{2-[(S)-1-((S)-2-Methoxycarbonylamino-3-methyl-butyryl)-pyrrolidin-2-yl]-3H-imidazol-4-yl}-biphenyl-4-ylmethyl)-carbamoyl]-pyrrolidine-1-carbonyl}-2-methyl-propyl)-carbamic acid methyl ester]	1230
